Test results from US8142782B2, “EGFR inhibitors promote axon regeneration” (Children's Medical Center Corporation, priority 2005, dated 2012).

Key:
CNS neurons = CNS neurons overexpressing SOCS2; cited from earlier work
EGFR = EGFR phosphorylation in serum-starved CGNs (immunoblot of neuronal lysates); assay type: cell-based; details: for effect on EGFR phosphorylation subsequent to Nogo-66 treatment: CGNs, Nogo-66-elicited trans-activation; for effect on direct EGFR activation by EGF: EGF stimulation; for induction of EGFR phosphorylation: serum-starved CGNs, Nogo-66 and OMgp at 5 nM
Text: To examine whether myelin inhibitors directly influence the activity of EGFR in myelin-responsive neurons, we treated serum-starved CGNs with recombinant soluble myelin inhibitors and assessed the EGFR receptor activity.
Previously, we developed a truncated form of NgR that has the ability to bind to ligands but not its signaling co-receptors (8-10, 12). When over-expressed, the truncated receptor can compete with endogenous NgR for coreceptor binding and thus block inhibitor-induced signaling pathways (8-10, 12). […] It is known that in addition to activation by its cognate ligands, EGFR phosphorylation can also result from “trans-activation” by other signaling pathways (22, 23). For example, angiotensin II acts through the angiotensin AT1 receptor, to promote growth of cardiomyocytes via trans-activation of the EGFR and activation of MAP kinase (23). […] We examined whether any of these mechanism(s) are involved in the NgR-dependent EGFR trans-activation by inhibiting specific signaling pathways pharmacologically. […]

[1] = system: cerebellar granule cells (CGNs) on immobilized myelin substrate; test: Screen of about 400 small molecules in a neurite outgrowth assay of CGNs on immobilized myelin; assay type: cell-based; details: 5×10^4 CGNs per well on immobilized myelin, grown overnight; 10-fold dilutions centered on IC50; scored by two blind observers
Experimental: We screened approximately 400 well-characterized small molecules in a neurite outgrowth assay of cerebellar granule cells (CGNs) on immobilized myelin substrate. Myelin was immobilized on 96-well plates using published methods (8). Individual compounds from a signaling molecule targeted drug library (TOCRIS) were diluted by 10-fold dilutions centered on their IC50 values, in concentrations typically varying from low nanomolar to micromolar, and transferred to culture wells with 5×10^4 CGNs per well. Cells were grown overnight, fixed in paraformaldehyde, and stained with tubulin antibodies. Outgrowth was independently scored by two blind observers. Positively scored compounds were picked for further verifications. Each compound was evaluated at a 10^4 dilution range centered on its IC50 value to ensure effective concentrations for each drug tested. Several internal controls, including cAMP analogues, phosphodiesterase inhibitors, and a Rho-associated protein kinase inhibitor were identified in the screen, confirming previous findings and validating our approach.

CGNs = test: Neurite outgrowth assay of P7-9 CGNs on control and myelin inhibitor substrates; assay type: cell-based; details: AG1288 1 μM, AG1478 10 nM, PD168393 10 nM; 20 hr; about 500 neurons per condition
Experimental: (§1) To confirm the involvement of EGFR kinase in myelin inhibition, we tested two well-characterized EGFR inhibitors with distinctive mechanisms of action, AG1478 and PD168393, and a non-receptor tyrosine kinase inhibitor, AG1288, in the outgrowth assay. P7-9 CGNs were plated on control and immobilized myclin substrate and grown in the presence of AG1288 (1 μM), AG1478 (10 nM) and PD168393 (10 nM) for 20 hr (8, 10). Cells were fixed in paraformaldehyde and stained with anti-tubulin antibody (Tuj1, Covance) to visualize and quantitate neurite length. […] Approximately 500 neurons were counted for each condition from at least 3 independent experiments. All AG1478 and PD168393 treatments on inhibitors were significant. In contrast, none of the treatments affected either the neurite outgrowth on a control poly-D-lysine (PDL) substrate or neuronal survival. Similarly, EGFR kinase inhibitors were able to block myelin neurite outgrowth inhibition in retinal explant cultures grown within a collagen matrix laden with myelin. P5-6 mouse retinas were dissected and cut into small explants on a tissue chopper. The resultant explants were cultured within a collagen matrix with and without myelin (10 μg/ml) in the presence or absence of PD168393 (10 nM) for 72 hrs. Explants were fixed and stained with anti-tubulin antibodies.

[2] = system: PC12 cell lines with reduced EGFR signaling; details: cited from earlier work
[3] = system: dorsal root ganglion (DRG) neurons; test: Neurite outgrowth assay of DRG neurons on myelin inhibitor substrates; assay type: cell-based
PC12 cells = details: cultured PC12 cells; cited from earlier work
[4] = system: P5-6 mouse retinal explants; test: Retinal explant outgrowth in collagen matrix laden with myelin; assay type: cell-based; details: myelin 10 μg/ml in collagen matrix; PD168393 10 nM; 72 hrs; Student's t test P<0.0001
Experimental: as §1

[5] = system: lesioned optic nerve fibers; assay type: in vivo
Text: The finding that inhibiting neuronal EGFR activity could efficiently block the inhibitory activity of both myelin inhibitors and CSPGs prompted us to examine whether EGFR inhibitors introduced at a CNS lesion site could promote axon regeneration in a model of optic nerve crushing (28). All animal experiments were done in accordance with protocols approved by the institutional animal care and use committee at Schepens Eye Research Institute. Adult mouse optic nerves were exposed behind the eyeball and crushed. Immediately after injury in adult mice, Gelfoam soaked in a solution containing the EGFR inhibitor PD168393 or 0.1% DMSO (control) was placed against the crush site of the nerve and replaced every three days for the first six days of the study. Animals were sacrificed two weeks post injury followed by transcardial perfusion with 4% paraformaldehyde. Optic nerves were cryosectioned at 10 μm and stained with an anti-GAP43 antibody (Chemicon) to detect regenerating axons (28). Little regeneration was detected in DMSO-treated control mice. […] To test the possibility that the observed axon regrowth of retinal ganglion neurons (RGCs) after PD168393 treatment was a consequence of improved cell survival, we stained retinal sections with the anti-tubulin Tuj1 antibody, which stains RGCs in the retina, and counted surviving RGCs. […]

Retinal explants = test: Retinal explant neurite outgrowth in collagen gels with CSPGs; assay type: cell-based; details: CSPGs 200 ng/ml in collagen gels; PD168393 100 nM; three days
Experimental: In addition to myelin inhibitors, chondroitin sulfate proteoglycans (CSPGs) in the glial scar represent a major hurdle for regenerating axons. […] Retinal explants were grown in collagen gels with and without CPSGs (200 ng/ml, Chemicon) and PD168393 (100 nM) for three days, fixed and stained with anti-tubulin antibodies. […] In contrast, neither growth cone collapse nor repulsive responses induced by Sema3A were affected by EGFR inhibitors.

[6] = system: neurons of the crushed right internal parietal (RIP) nerve; details: pond snail Lymnaea stagnalis; cited from earlier work

## N#C/C(=C\c1ccc(O)c(O)c1)C(=O)NCc1ccccc1 [AG490]
CNS neurons
  effect on neurite outgrowth promoted by SOCS2 overexpression: outgrowth is blocked

## CC(=O)OCOC(=O)CN(CC(=O)OCOC(C)=O)c1ccccc1OCCOc1ccccc1N(CC(=O)OCOC(C)=O)CC(=O)OCOC(C)=O [BAPTA-AM]
EGFR
  effect on EGFR phosphorylation subsequent to Nogo-66 treatment: significantly decreased EGFR phosphorylation
  effect on direct EGFR activation by EGF: neither EGTA nor BAPTA-AM had any effect

## TAPI
EGFR
  effect on EGFR phosphorylation subsequent to Nogo-66 treatment: had no effect

## O=C(O)CN(CCOCCOCCN(CC(=O)O)CC(=O)O)CC(=O)O [EGTA]
EGFR
  effect on EGFR phosphorylation subsequent to Nogo-66 treatment: significantly decreased EGFR phosphorylation
  effect on direct EGFR activation by EGF: neither EGTA nor BAPTA-AM had any effect

## pertussis toxin
EGFR
  effect on EGFR phosphorylation subsequent to Nogo-66 treatment: had no effect

## N#C/C(=C\c1ccc(O)c(O)c1)C(N)=S [Tyrphostin A47]
[1]
  ability to counter the effects of myelin inhibition on neurite outgrowth: showed the greatest ability to counter the effects of myelin inhibition

## COc1cc2ncnc(Nc3cccc(Cl)c3)c2cc1OC [AG1478]
CGNs
  promotion of neurite outgrowth from CGNs on whole myelin and individual myelin inhibitors (Nogo-66, MAG): effectively promoted neurite outgrowth
[2]
  cytotoxicity: cytotoxic
[3]
  promotion of neurite outgrowth from DRG neurons on whole myelin and individual myelin inhibitors (Nogo-66, MAG): effectively promoted neurite outgrowth
PC12 cells
  effect on versican V1-induced neuronal differentiation: significantly blocks differentiation

## C=CC(=O)Nc1ccc2ncnc(Nc3cccc(Br)c3)c2c1 [PD168393]
[4]
  outgrowth of retinal explants in myelin cultures compared to myelin alone: significantly promoted outgrowth of explants
[5]; adult mice, measured 0.25 mm beyond the injury site, two weeks post injury, GAP43 staining, DMSO control
  increase in the number of regenerating axons compared to control mice: 9 fold
[5]; mouse, in vivo
  effect on RGC survival: No detectable effect
CGNs
  promotion of neurite outgrowth from CGNs on whole myelin and individual myelin inhibitors (Nogo-66, MAG): effectively promoted neurite outgrowth
Retinal explants
  neurite length of retinal explants compared to CSPGs alone: significantly increased neurite length
[3]
  promotion of neurite outgrowth from DRG neurons on whole myelin and individual myelin inhibitors (Nogo-66, MAG): effectively promoted neurite outgrowth

## N#C/C(=C\c1ccc(O)c(O)c1)C(N)=O [Tyrphostin A46]
[1]
  ability to counter the effects of myelin inhibition on neurite outgrowth: showed the greatest ability to counter the effects of myelin inhibition

## CC(C)(C)n1nc(-c2ccc(Cl)cc2)c2c(N)ncnc21 [PP2]
EGFR
  effect on EGFR phosphorylation subsequent to Nogo-66 treatment: had no effect

## Cn1c2ccccc2c2c3c(c4c5ccccc5n(CCC#N)c4c21)CNC3=O [Go6976]
EGFR
  effect on EGFR phosphorylation subsequent to Nogo-66 treatment: had no effect

## C[C@@H](NC(=O)/C(C#N)=C/c1ccc(O)c(O)c1)c1ccccc1 [Tyrphostin B44(−)]
[1]
  ability to counter the effects of myelin inhibition on neurite outgrowth: showed the greatest ability to counter the effects of myelin inhibition

## Nc1ncnc2c1cnn2-c1ccccc1 [PP3]
CNS neurons
  effect on neurite outgrowth promoted by SOCS2 overexpression: outgrowth is blocked

## COc1cc2ncnc(Nc3cccc(Br)c3)c2cc1OC [PD153035]
[6]
  effect on EGF-promoted axonal regeneration: counteracts the effect of EGF on axonal regeneration

## CNC(=O)[C@H](Cc1c[nH]c2ccccc12)NC(=O)[C@@H](CC(=O)NO)CC(C)C [GM6001]
EGFR
  effect on EGFR phosphorylation subsequent to Nogo-66 treatment: had no effect

B1: Semaphorin3A: chemorepellant (protein, UniProt Q14563 21-771, looked up)
Semaphorin-3A: NYQNGKNNVPRLKLSYKEMLESNNVITFNGLANSSSYHTFLLDEERSRLYVGAKDHIFSFDLVNIKDFQKIVWPVSYTRRDECKWAGKDILKECANFIKVLKAYNQTHLYACGTGAFHPICTYIEIGHHPEDNIFKLENSHFENGRGKSPYDPKLLTASLLIDGELYSGTAADFMGRDFAIFRTLGHHHPIRTEQHDSRWLNDPKFISAHLISESDNPEDDKVYFFFRENAIDGEHSGKATHARIGQICKNDFGGHRSLVNKWTTFLKARLICSVPGPNGIDTHFDELQDVFLMNFKDPKNPVVYGVFTTSSNIFKGSAVCMYSMSDVRRVFLGPYAHRDGPNYQWVPYQGRVPYPRPGTCPSKTFGGFDSTKDLPDDVITFARSHPAMYNPVFPMNNRPIVIKTDVNYQFTQIVVDRVDAEDGQYDVMFIGTDVGTVLKVVSIPKETWYDLEEVLLEEMTVFREPTAISAMELSTKQQQLYIGSTAGVAQLPLHRCDIYGKACAECCLARDPYCAWDGSACSRYFPTAKRRTRRQDIRNGDPLTHCSDLHHDNHHGHSPEERIIYGVENSSTFLECSPKSQRALVYWQFQRRNEERKEEIRVDDHIIRTDQGLLLRSLQQKDSGNYLCHAVEHGFIQTLLKVTLEVIDTEHLEELLHKDDDGDGSKTKEMSNSMTPSQKVWYRDFMQLINHPNLNTMDEFCEQVWKRDRKQRRQRPGHTPGNSNKWKHLQENKKGRNRRTHEFERAPRSV
EGFR
  induction of EGFR phosphorylation: neither a control alkaline phosphatase (AP) protein nor the chemorepellant Semaphorin3A (Sema3A) induced detectable levels

B2: OMgp: recombinant soluble myelin inhibitor, oligodendrocyte myelin glycoprotein (protein, UniProt P23515 25-417, looked up)
Oligodendrocyte-myelin …: ICPLQCICTERHRHVDCSGRNLSTLPSGLQENIIHLNLSYNHFTDLHNQLTQYTNLRTLDISNNRLESLPAHLPRSLWNMSAANNNIKLLDKSDTAYQWNLKYLDVSKNMLEKVVLIKNTLRSLEVLNLSSNKLWTVPTNMPSKLHIVDLSNNSLTQILPGTLINLTNLTHLYLHNNKFTFIPDQSFDQLFQLQEITLYNNRWSCDHKQNITYLLKWMMETKAHVIGTPCSTQISSLKEHNMYPTPSGFTSSLFTVSGMQTVDTINSLSVVTQPKVTKIPKQYRTKETTFGATLSKDTTFTSTDKAFVPYPEDTSTETINSHEAAAATLTIHLQDGMVTNTSLTSSTKSSPTPMTLSITSGMPNNFSEMPQQSTTLNLWREETTTNVKTPLPS
EGFR
  induction of EGFR phosphorylation: triggered EGFR phosphorylation as early as 1 min post-stimulation
